Structures can show the parent of a compound that is named as a salt.
How the values were obtained:
Format in all cases: in vivo
[1] = system: eggs with diapaused embryos of Bombyx mori; experiment: Termination of embryonic diapause in eggs dipped in NO donor or HCl; conditions: SpermineNONOate 1 mM 30 min dip; 20% HCl 5 min 48° C.
Description: All experiments were carried out on silkmoth strain Bombyx mori J106 (Lepidoptera: Bombycidae). Larvae were maintained on an artificial diet (Yakuruto Co.) under standard conditions of 25° C., 65% relevant humidity and 16 h light ([…] et al., 2003). Egg batches were collected from a continuous insect colony and used for the experiments. […] The latter treatment is the normally used procedure to break diapause in eggs with diapaused embryos for maintenance of the insect colony of B. mori ([…] et al., 2003). In a water-control, eggs with diapaused embryos were dipped in distilled water only, and in a blank-control, eggs with diapaused were not treated. […] The numbers of eggs with diapaused embryos per treatment (n) are given with the results.

[2] = system: Bolshoye Yarovoye Artemia cysts (ARC BY 1706); experiment: Post-diapause development of Bolshoye Yarovoye strain encysted Artemia embryos with NO donors; conditions: for hatching after 24 hours: 40 and 60 μM, overcome by 48 hr; for concentration at which NO donor was most effective on cyst development: Bolshoye Yarovoye cysts, FIG. 2A-F
Description: Encysted embryos (cysts) from a parthenogenetic strain of Artemia obtained in winter 2005-2006 in Bolshoye Yarovoye (Altay Region: 52° 51′64″ N-78° 37′32″ E), Russia (Artemia Reference Center (ARC) code number BY 1706), were stored in the dark at 4° C. in dry sealed bags. For the experiment, the cysts were grown at 26-28° C. with constant illumination in 25 ml of sea water under varying experimental conditions as detailed below.
To quantify larval (nauplii) emergence and hatching (FIG. 1) which served as measures of cyst development, 6 samples of 250 μl from each 50 ml tube were mixed individually with 250 μl of sea water and 2 drops of Lugol's solution (Van Stappen, G, 1996) prior to counting nauplii (N) and umbrella (U) with the aid of a dissecting microscope. […] The extent of development was determined as the percent of developed cysts which was calculated as either the number of hatched larvae, or the number of hatched and emerged larvae, obtained from 100 cysts, the latter represented by the sum of hatched nauplii (larvae), emerged larvae and undeveloped cysts containing embryos.
(§1) The hatching percentage (H %) was calculated according to: […]
(§2) The hatching percentage plus (H^+%) was calculated according to: […]
The percent of developed cysts was calculated as described above.

[3] = system: Maloye Yarovoye Artemia cysts (ARC MY 1732); experiment: Post-diapause development of Maloye Yarovoye strain encysted Artemia embryos with NO donor
Description: Encysted embryos (cysts) from a parthenogenetic strain of Artemia obtained in 2008 in Maloye Yarovoye (Altay Region: 53° 04′00″ N-79° 10′00″ E), Russia (Artemia Reference Center (ARC) code number MY 1732), were stored in the dark at 4° C. in dry sealed bags. For the experiment, the cysts were grown at 26-28° C. with constant illumination in 25 ml of sea water under varying experimental conditions as detailed below.
To quantify nauplii (larvae) emergence and hatching (FIG. 1) which served as measures of cyst development, 6 samples of 250 μl were taken from each 50 ml tube after 24 and 48 h. Subsequently the obtained samples were mixed individually with 250 μl of sea water and 2 drops of Lugol's solution (Van Stappen, G, 1996) prior to counting nauplii (N) and umbrella (U) with the aid of a stereomicroscope.
as §1, §2

[4] = system: Vinh Chau Artemia cysts (ARC VC 1742); experiment: Post-diapause development of Vinh Chau strain encysted Artemia embryos with NO donor
Description: Dry and processed embryos (cysts) from a strain of Artemia obtained in 2009 in the Soc Trang Province in the Mekong Delta (09° 19′48″ N-105° 58′11″ E) (Artemia Reference Center (ARC) code number VC 1742), were stored in the dark at 4° C. in tin cans, that were not resealed after the first opening. For the experiment, the cysts were grown at 26-28° C. with constant illumination in 25 ml of sea water under varying experimental conditions as detailed below.
To quantify nauplii (larvae) emergence and hatching (FIG. 1) which served as measures of cyst development, 6 samples of 250 μl were taken from each 50 ml tube after 10, 12, 14, 16, 18, 20, 22 and 24 h post incubation. Subsequently the obtained samples were mixed individually with 250 μl of sea water and 2 drops of Lugol's solution (Van Stappen, G, 1996) prior to counting nauplii (N) and umbrella (U) with the aid of a stereomicroscope.
as §1, §2

[5] = system: resting eggs of Brachionus; experiment: Brachionus resting egg hatching
Description: Resting eggs of Brachionus were suspended in 20 ml seawater (25 g/l), supplemented with different concentrations of Sin-1 Chloride (1-60 μM) and put in a falcon tube. These tubes were put on a rotor at 28° C. under constant illumination. The effect on the hatching rate was measured after 48 hr and 72 hr of incubation, by counting emerged rotifers in function of the amount of NO donor added.

[6] = system: eggs with diapaused embryos of Bombyx mori; experiment: Termination of embryonic diapause in eggs by NO gas; conditions: 5 days after treatment
Description: All experiments were carried out on silkmoth strain Bombyx mori J106 (Lepidoptera: Bombycidae). Larvae were maintained on an artificial diet (Yakuruto co.) under standard conditions of 25° C., 65% relative humidity and 16 h light (Tazima, Y., 1978; Swevers et al., 2003). Egg batches were collected from a continuous insect colony and used for the experiments.
In a first series, a batch of 70 eggs with diapaused embryos of B. mori were submerged for 5 minutes in 20% HCl (in distilled water) at 48° C., and then the eggs were washed with distilled water and dried to the air. […] The latter treatment is the normally used procedure to break diapause in eggs with diapaused embryos for maintenance of the insect colony of B. mori (Tazima, Y., 1978; Swevers et al., 2003). In a water-control, a batch of 70 eggs with diapaused embryos was submerged in distilled water for 5 minutes at 45° C., and in a blank-control, the same procedure was followed, but without addition of water.
In parallel, 4 batches of 70 eggs each, were put in Pyrex glass bottles of 100 mL, which were sealed gastight by means of a rubber stop and a screw cap. Then the air was removed from these bottles by inserting a needle (in the rubber stop) connected to a vacuum pump. Using 50 ppmv (Parts Per Million by Volume) NO gas (with N2 as carrier gas, purchased from Air Liquide) dilution series were prepared (with air as dilutor) to obtain final NO concentrations of 20, 200, 2000 and 20000 ppbv, in these bottles. Verification of the NO concentrations was done by sampling from a parallel bottle that received the same gas mixture as the treatment bottle and NO content was determined by using a chemiluminescence detector (CLD 77 Amsp, Eco Physics). 30 minutes after insertion of the gas mixtures, the rubber stops were removed. These treatments were all performed at room temperature.
Development of the neonate larvae (=hatching of first instar larvae from eggs) was scored at daily intervals. The numbers of eggs with diapaused embryos per treatment (n) are given with the results.

[7] = system: diapaused adults of Leptinotarsa decemlineata; experiment: Termination of adult diapause by NO gas
Description: All experiments were carried out on the Colorado potato beetle (potato beetle), Leptinotarsa decemlineata (Say) (Coleoptera: Chrysomelidae). Diapaused adult beetles were obtained by rearing larvae and pupae at 8 h light, 16 h dark, 25±2° C. and 70% relative humidity (Yi, et al., 2000). All life stages were fed potato (Solanum tuberosum L. ‘Bintje’) plants, that were refreshed daily. 15 days after adult emergence, the diapausing adults were placed in individual aluminum foil, 2.5-cm diameter ‘beakers’, containing fresh soil (Universal potting soil, Type 1, M. Snebbout n.v., Kaprijke, Belgium), and were stored at 4° C. in darkness.
Under red light, beetles were collected and put in Pyrex glass bottles of 100 mL, containing a layer of fresh soil. These bottles were wrapped in a double layer of aluminum foil to ensure complete darkness and sealed gastight by means of a rubber stop and a screw cap. The air was then removed by inserting a needle (in the rubber stop) connected to a vacuum pump. Using 50 ppmv NO gas (with N2 as carrier gas, purchased from Air Liquide), dilution series were prepared (with air as dilutor), and the desired final NO concentrations were injected in each bottle. A blank control, received ambient air only. Verification of the NO concentrations was done by sampling from a parallel bottle that received the same gas mixture as the treatment bottle. NO content was determined with a chemiluminescence detector (CLD 77 Amsp, Eco Physics). The treatments were all done at 4° C. in the dark and 30 minutes after insertion of the gas mixtures, the rubber stops were removed.
After the treatments, the beetles were collected in plastic containers (dimensions: 10×21×5 cm), containing fresh soil and potato leaves and kept at 25±3° C., 65% relative humidity and 8 h light (Exp. 1 and 2). In the last experiment (Exp 3), beetles were left at 4° C. in the dark for 6 hours before transfer to a 12° C. incubator, in the dark. The beetles that emerged were collected every day and the beetles' emergence per treatment (% of total) are given with the results.

Compound: Cl [20% HCl]
- Number of developed neonates at day 6 [1]: 10
- Number of developed neonates at day 7 [1]: 36
- Number of developed neonates at day 8 [1]: 12
- Number of developed neonates at day 14 [1]: 0
- Number of undeveloped eggs at day 14 [1]: 14
- eggs developed into neonate larvae at 6-8 days after treatment (total) [1]: 81%
- percentage of developed neonates at day 14 [1]: (0%)

Compound: CC1(C)N([O])C(c2ccccc2)=[N+]([O-])C1(C)C [PTIO, 2-phenyl-4,4,5,5,-tetramethylimidazoline-1-oxyl 3-oxide]
- effect of NO scavenger on cyst development promoted by NO donors ([2]; 300 μM PTIO with 0.5 μM Papa NONOate, 6.0 μM Spermine NONOate or 6.0 μM Sin-1 chloride, 48 hr): inhibited cyst development

Compound: CCCN(CCCN)N(O)N=O [Papa NONOate, 3-(2-hydroxy-2-nitroso-1-propylhydrazino)-1-propanamine]
- increase in number of nauplii compared to the control ([3]; 4 μM, 48 h): ~5 fold
- hatching percentage (H %) ([3]; 4 μM, 48 h, control around 10%): 47%
- optimal dose for inducing hatching ([3]; Maloye Yarovoye diapausing cysts): 4 µM
- hatching after 24 hours [2]: inhibited hatching almost completely
- concentration at which NO donor was most effective on cyst development [2]: 0.63 µM
- hatching percentage (H %) versus untreated control ([4]; 0.5 μM, 16 and 18 h post-treatment): significantly increased
- hatching percentage (H %) versus non-treated controls ([4]; 1 and 4 μM, 16 hours and more): comparable to the non-treated controls
- optimal dose ([4]; Vinh Chau cysts): 0.5 µM
- hatching percentage plus (H+%) versus non-treated controls ([4]; all treatments (0.5, 1, 4 μM) at 12, 18 and 20 hours): significantly increase

Compound: [NH-]c1c[n+](N2CCOCC2)no1 [Sin-1 Chloride, 3-morpholine syndnonimine]
- hatching after 24 hours [2]: less dramatic, but obvious
- concentration at which NO donor was most effective on cyst development [2]: 4.0 µM
- Percentage hatching of resting eggs ([5]; 1 μM, 48 hrs): 12.34% (3.62)
- Percentage hatching of resting eggs ([5]; 1 μM, 72 hrs): 33.11% (2.66)
- Percentage hatching of resting eggs ([5]; 6 μM, 48 hrs): 18.93% (1.25)
- Percentage hatching of resting eggs ([5]; 6 μM, 72 hrs): 33.71% (0.66)
- Percentage hatching of resting eggs ([5]; 10 μM, 72 hrs): 37.17% (2.88)
- Percentage hatching of resting eggs ([5]; 20 μM, 48 hrs): 17.99% (3.18)
- Percentage hatching of resting eggs ([5]; 20 μM, 72 hrs): 32.38% (2.63)
- Percentage hatching of resting eggs ([5]; 60 μM, 48 hrs): 14.98% (3.52)
- Percentage hatching of resting eggs ([5]; 60 μM, 72 hrs): 27.57% (1.00)

Compound: nitric oxide [NO gas]
- eggs emerged ([6]; 0.02-20 ppmv NO, controls 0%): 27.1-37.1%
- Percentage of developing eggs ([6]; 0.02 ppmv NO): 37.1%
- Percentage of developing eggs ([6]; 0.20 ppmv NO): 35.7%
- Percentage of developing eggs ([6]; 2.00 ppmv NO): 31.4%
- Percentage of developing eggs ([6]; 20.0 ppmv NO): 27.1%
- percentage of emerging adult beetles ([7]; 0.300 ppmv, after 4 days, in diapause for 27 days, blank control 14.3%): 42.9%
- percentage of emerging adult beetles ([7]; 2.6 ppmv, 3 days after treatment, in diapause for 10 days): 20%
- percentage of emerging adult beetles ([7]; 2.6 ppmv, day 6, in diapause for 10 days): 40%
- percentage of emerging adult beetles ([7]; 6.1 ppmv, 3 days after treatment, in diapause for 10 days): 20%
- percentage of emerging adult beetles ([7]; 6.1 ppmv, day 6, in diapause for 10 days): 20%
- percentage of emerging adult beetles ([7]; 67.4 ppmv, after 4 days, in diapause for 10 days): 20%

From patent US20120064180A1, “USE OF NO AND NO DONORS FOR TERMINATING DORMANCY IN INVERTEBRATES” (UNIVERSITEIT GENT, priority 2009, published 2012)
